Peptide text beside a SMILES is read from it. * marks the point of attachment. Cbz = O=C(OCc1ccccc1)*
What was measured:
Format in all cases: cell-based, murine
[1] = test system: βCTF levels in L/APP cells (L cell line overexpressing human APP695); test: βCTF ELISA (C1/6.1 capture, JRF/AβN/25 detection) on cell lysates; conditions: for reduction of βCTF levels relative to control: 10 μg/ml for 6 hours (FIG. 10B); for βCTF levels: control 2.7 (FIG. 8A)
Method: (§1) Cell lines, cDNA constructs, and transfections. Ltk-cells (a murine fibroblast-like cell line; (S. Kit et al., 1967, J. Virol., 1(1): 238-240) were maintained at 37° C. and 5% CO2 in high glucose DMEM, (Celigro, Hedon, Va.) supplemented to contain 10% fetal bovine serum (Gemini, Woodland, Calif.), 2 mM glutamax I (Gibco/BRL, Gaithersburg, Md.), and penicillin/streptomycin (Celigro). cDNAs encoding human APP695 and human rab5 were inserted into the mammalian expression vector pcDNA3 (Invitrogen, Carlsbad, Calif.). Following transfection using lipofectin (manufacturer's protocol; Gibco/BRL), stable L cell lines overexpressing APP695 were selected in 400 μg/ml G418 (Gemini) and screened for expression. Transient transfections with rab5 were done using lipofectAMINE (Gibco/BRL) or fugene (Boehringer-Mannheim, Indianapolis, Ind.) according to the manufacturers' protocol.
(§2) Sandwich ELISAs. Sandwich ELISAs using the antibodies as presented in Table 1 were performed essentially as has been reported (C. Janus et al. Id.; R. Rozmahel et al., Neurobiology of Aging, 23:187-194; and P. M. Mathews et al., 2002, J. Biol. Chem., 277: 5299-5307), with modifications to detect cell-associated APP metabolites. The wells of Nunc-Immuno PIates (Nunc A/S, Roskilde, Denmark) were coated overnight at 4° C. using 20 μg/ml of C1/6.1 and the remaining protein binding sites were blocked by incubating with 1% Block Ace (Yukijirushi Milk, Sapporo Japan) in PBS (200 μl/well) for 4 hours at room temperature.
(§3) For the βCTF ELISA, a synthetic peptide was prepared, i.e., […], (SEQ ID NO:1), that contains both the JRF/AβN/25 epitope (SEQ ID NO:4) and the C1/6.1 epitope (SEQ ID NO:2), (see Table I). For the APP/total CTF ELISA, a glutathione S-transferase fusion protein containing the C-terminal 99 residues of human APP (GST-βPP672-770; (K. Islam and E. Levy, 1997, Am. J. Pathol. 151(1):265-71) was prepared. This fusion protein contains both the C1/6.1 and C2/7.1 epitopes. These standards, prepared as stock solutions, were dissolved in DMSO, stored at −70° C., and were further diluted in buffer containing 20 mM Na phosphate, 2 mM EDTA,. 400 mM NaCl, 0.2% BSA, 0.05% CHAPS, 0.4% Block Ace and 0.05% NaN3, pH 7.0 immediately, prior to use.
(§4) ELISA plates were incubated overnight at 4° C. with samples and standards. Samples, as described herein, were cell lysates prepared in 1% Triton X-100®, 140 mM NaCl, 25 mM Tris (pH 7.4), 0.5 mM EDTA, and protease inhibitors. Lysates were vortexed briefly, allowed to rest on ice for 30 minutes, and centrifuged at 6,000 rpm in an Eppendorf centrifuge. The supernatant was used for the ELISA. Following overnight binding of APP and APP metabolites to the capture antibody (C/1/6.1), the wells were washed twice with phosphate buffered saline (PBS) containing 0.5% Triton X-100®/0.05% Tween-20 followed by two washes with PBS. A solution containing 20 mM Na phosphate, 2 mM EDTA, 400 mM NaCl, and 1% BSA, pH 7.0 was then added to the wells for 1 hour at room temperature.
(§5) APP and cell-associated APP metabolites were detected by incubating for 4 hours at room temperature with horseradish peroxidase (HRP)-conjugated C2/7.1 or JRF/AβN/25 diluted in 20 mM Na phosphate, 2 mM EDTA, 400 mM NaCl, 1% BSA, pH 7.0. Thereafter, the wells were again washed twice with phosphate buffered saline (PBS) containing 0.5% Triton X-100®/0.05% Tween-20, followed by two washes with PBS. ELISA plates were developed using a color reaction (TMB Microwell Peroxidase Substrate System, Kirkegaard & Perry, Gaithersburg, MD) and the OD450 was read. ELISA signals are reported as the mean ±SE of two or more wells in femtomoles per ml relative to standard.
(§6) Preparation of cell lysates for ELISA. Cells were seeded into 6-well dishes and allowed to settle overnight. […]

[2] = test system: APP holoprotein and all CTFs in L/APP cells; test: APP/total CTF ELISA (C1/6.1 capture, C2/7.1 detection) on L/APP cell lysates; conditions: for cellular APP levels (APP/total CTF) relative to untreated control cells: 10 μg/ml for 6 hours (FIG. 10A)
Method: as §1, §2, §3, §4, §5, §6

[3] = test system: Aβ1-40 secreted by L/APP cells; test: Aβ1-40 ELISA of growth media; conditions: 10 μg/ml, 6 hour incubation (FIG. 10C)
Method: L/APP cells were plated at equal density and APP expression was induced. Cells were then incubated for 6 hours without treatment, or with the addition of 10 μg/ml cyclohexamide or 10 μg/ml 3-methyl adenine (3MA). APP/total CTF levels (FIG. 10A) and βCTF levels (FIG. 10B) in cell lysates were then determined by ELISA. Aβ1-40 (FIG. 10C) and Aβ1-42 (FIG. 10D) levels secreted into the growth media during this 6 hour incubation were determined by ELISA (C. Janus et al., 2000, Nature, 408(6815):979 982). Data are expressed as a percentage of, the level seen in untreated control cells for each assay.
In addition, Aβ levels in the growth media were examined from these test cells. […] Again, the reduction in Aβ generation obtained with cyclohexamide treatment is due to non-specific cytotoxicity, while the reduction in Aβ generation obtained following 3MA treatment is linked to a specific reduction in βCTF generation.

[4] = test system: APP holoprotein, αCTF and βCTF in L/APP cells; test: Metabolic pulse-chase labeling and immunoprecipitation of APP and CTFs; conditions: for levels of αCTFs and βCTFs after 1 hour chase (C1/6.1 immunoprecipitation): 10 μM, 3 hours pretreatment plus pulse and chase (FIG. 1)
Method: Metabolic labeling, immunoprecipitation and Western blot analysis. To detect APP and CTFs, 5×10^5 cells were seeded onto 35-mm diameter tissue culture dishes followed by induction of human APP695 expression with 20 mM butyrate for 24 hours (P. M. Mathews et al., 1992, J. Cell. Biol., 118(5):1027-1040; P. M. Mathews et al., 2000 Mol Med., 6(10)878-891). Cultures were methionine/cysteine starved for 20 minutes, pulse-labeled for 15 minutes with 100 μCi/ml TRANS^35S-LABEL (Dupont-NEN), washed, and chased in complete medium containing 2 mM unlabeled methionine (P. M. Mathews et al., 1992, J. Cell. Biol., 118(5):1027-1040). Calpain inhibitors, as described herein, were added to the growth medium 3 hours prior to methionine/cysteine starvation and then throughout pulse-labeling and chase.
Cell lysates (prepared in 1% Triton X-100, 140 mM NaCl, 25 mM Tris pH 7.4, 0.5 mM EDTA, 10 mM methionine and protease inhibitors; (P. M. Mathews et al., 1992, J. Cell. Biol., 118(5):1027-1040; A. Beggan et al., 1996, J. Biol. Chem., 271(34):20895-20902) were subjected to immunoprecipitation with various monoclonal antibodies as described in Example 2. Immunoprecipitated proteins were sized by SDS-PAGE and labeled proteins were visualized by exposure to x-ray film and analyzed quantitatively using a Storm 840 phosphorimager (Molecular Dynamics/Amersham Biosciences, Sunnyvale, Calif. and/or by scan analysis (NIH Image).
To determine whether a particular monoclonal antibody detected APP holoprotein and/or αCTF and/or βCTF or both, L cells overexpressing human APP695 (L/APP cells) were metabolically labeled for 15 minutes, and then were chased for 1 hour (FIG. 1, lanes 1-6).
Thus, in addition to control conditions, cells were treated for 3 hours prior to, as well as during, the pulse and chase periods with the indicated calpain inhibitors (FIG. 1, lanes 7-18) to increase the levels of metabolically labeled CTFs prior to immunoprecipitation. Equal volumes of detergent lysates prepared from the pulse and chase periods were subjected to immunoprecipitation with each of the monoclonal antibodies and labeled APP species were resolved on 4-20% gradient SDS-PAGE.
The pulse-chase experiment shown in FIGS. 2A and 2B was designed to determine if C1/6.1 was able to detect other species of CTFs (e.g. the γCTF). Accordingly, L/APP cells were pulse-labeled for 15 minutes and chased for the indicated times up to 6 hours prior to immunoprecipitation of lysates with C1/6.1.

[5] = test system: APP holoprotein and all CTFs in parental L cells; test: APP/total CTF ELISA on parental L cell lysates; conditions: 10 μM calpeptin 6 hours (FIG. 7B)
Method: as §1
Sandwich ELISAs. […]
APP and cell-associated APP metabolites were detected by incubating for 4 hours at room temperature with horseradish peroxidase (HRP)-conjugated C2/7.1 or JRF/AβN/25 diluted in 20 mM Na phosphate, 2 mM EDTA, 400 mM NaCl, 1% BSA, pH 7.0. […] ELISA plates were developed using a color reaction (TMB Microwell Peroxidase Substrate System, Kirkegaard & Perry, Gaithersburg, MD) and the OD450 was read. […]

APP CTFs in L/APP cells = test: Western blot analysis using C1/6.1; conditions: 10 μm calpeptin 6 hours (FIG. 5A)
Method: For Western blot analysis, protein concentration in cell lysates was determined (BioRad DC Protein Assay, BioRad, Rockville Center, N.Y.), and equal amounts of proteins were separated by SDS-PAGE and transferred to PVDF membrane. Membranes were incubated in C1/6.1 (2 μg/ml) overnight, washed, and incubated with HRP-conjugated goat anti-mouse IgG for 1.5 hours. Membranes were incubated in ECL substrate (Amersham, Arlington Heights, Ill.) and exposed to x-ray film.
In this rab5 overexpression experiment, L/APP cells were transiently-transfected with no DNA (FIG. 5A, lanes 1 and 2), or rab5 cDNA (FIG. 5A, lanes 3-5) and the levels of APP holoprotein and CTFs were determined by Western blot analysis using C1/6.1 (FIG. 5A).

[6] = 75 μg/ml cyclohexamide 6 hours, versus control

Cn1cnc(N)c2ncnc1-2 [3MA, 3-methyl adenine]
reduction of βCTF levels relative to control [1]: 50%
cellular APP levels (APP/total CTF) relative to untreated control cells [2]: did not reduce cellular APP levels
Aβ1-40 levels in growth media relative to control [3]: reduction in Aβ1-40 levels relative to control

CC(C)[C@H](NC(=O)OCc1ccccc1)C(=O)N[C@H](C=O)Cc1ccccc1 [calpain inhibitor III] (Cbz-Val-Phe-aldehyde)
levels of αCTFs and βCTFs after 1 hour chase (C1/6.1 immunoprecipitation) [4]: substantial and apparently proportionate increase in the levels of both αCTFs and βCTFs

CCCC[C@@H](C=O)NC(=O)[C@H](CC(C)C)NC(=O)OCc1ccccc1 [calpeptin]
βCTF levels ([1]; 10 μM calpeptin 6 hours): 5.4 fmol/mL
amount of βCTFs detected by ELISA ([1]; 10 μM calpeptin 6 hours, untreated 16.1 (FIG. 5B)): 26.0 fmol/mL
βCTF levels detected by ELISA ([1]; 10 μM calpeptin for 6 hours, untreated 5.8±0.3 (FIG. 4)): 10.0 ± 0.6 fmol/mL
APP/total CTF ELISA signal ([2]; 10 μM calpeptin 6 hours (FIG. 7B)): greatly increased the ELISA signal
change in APP/total CTF levels ([2]; 10 μM calpeptin 6 hours (FIG. 8B)): smaller relative increase in APP/total CTF levels
APP/total CTF ELISA signal [5]: increased the signal in the L cells, although not to a statistically significant degree
generation of α and βCTFs during the initial 1 hour of chase ([4]; 10 μM calpeptin (FIG. 2B)): substantially increased the generation of both α and βCTFs
turnover of CTFs ([4]; 10 μM calpeptin (FIG. 2B)): did not appear to reduce the turnover of CTFs
turnover of APP holoprotein ([4]; 10 μM calpeptin, chase up to 6 hours (FIG. 2A)): unchanged
levels of αCTFs and βCTFs after 1 hour chase (C1/6.1 immunoprecipitation) [4]: substantial and apparently proportionate increase in the levels of both αCTFs and βCTFs
levels of CTFs by Western blot (APP CTFs in L/APP cells): greatly increased the levels of CTFs detected

C[C@@H]1C[C@@H]([C@H](O)CC2CC(=O)NC(=O)C2)C(=O)[C@@H](C)C1 [cyclohexamide]
reduction of βCTF levels relative to control [1]: reduced βCTF levels somewhat more
βCTF levels ([1]; 75 μg/ml cyclohexamide 6 hours): 0.6 fmol/mL
reduction of βCTF levels [1, 6]: 78%
cellular APP levels (APP/total CTF) relative to untreated control cells [2]: cyclohexamide treatment did
APP/total CTF levels ([2]; 75 μg/ml cyclohexamide 6 hours, control 608 (FIG. 8B)): 74 fmol/mL
reduction of APP/total CTF levels [2, 6]: 88%
Aβ1-40 levels in growth media relative to control [3]: reduction in Aβ1-40 levels relative to control
